The values below come from patent US7056511B2, “Inhibition of protein binding to mast cells” (Fornix Biosciences N.V., priority 1998, dated 2006).

One assay deals with RBL-2H3 cells. The assay can be described thus: Binding of FITC-labeled Ig LC to RBL-2H3 mast cell model (FACScan flow cytometer). In kind it is cell-based, rat. How it is done: Basophilic leukemia cells RBL-2H3 (a gift of C. Fewtrell, Ithaca, N.Y., U.S.A.) of the rat, an established model for mast cells, were incubated with 200 ng/10^5 cells Ig LC labeled with fluorescein isothiocyanate. They were incubated for 30 minutes at 4° C. in the presence or absence of 250 μg/ml of the peptide LCBP prepared in preparation 1 (peptide binding to the light chain). Subsequently, they were washed using a phosphate-buffered saline supplemented with 1% v/v fetal calf serum and 0.01% w/v sodium azide. Binding of FITC-labeled Ig LC to RBL-2H3 cells was analyzed using a FACScan flow cytometer.
Curve 4 represents the autofluorescence of unlabeled RBL-2H3 cells.
A general note: A flow cytometer gives signals particle by particle.

For the next assay, the system named is mice. The assay can be described thus: Bronchoconstriction (Penh, plethysmography) in mice passively sensitized with TNP-specific Ig LC and challenged intranasally with PSA. Type of assay: in vivo. How it is done:
Lightly anaesthetized with halothane, mice were passively sensitized by injection with trinitrophenyl (TNP)-specific Ig LC (2 μg in 50 μl of sterile saline) in the retroorbital plexus. Control mice received only 50 μl of sterile saline. Thirty minutes after injection, while being lightly anaesthetized with halothane, all mice received intranasally 50 μl PSA-solution (picrylsulphonic acid dissolved in phosphate-buffered saline).
A part of each of these two groups of mice simultaneously received 200 μg LCBP (the peptide prepared in Example 1) intranasally.
Bronchoconstriction was measured as described by Kraneveld A. D. et al. (ref. 3) and Zuany-Amorim et al. (ref. 6). In short, five minutes before intranasal application of PSA, mice were placed in a plethysmographic chamber (Buxco Electronics Inc., Shanon, Conn.) in order to analyze respiration and to obtain basal line readings. After the intranasal administration, the animals were directly returned to the chamber. The respiratory resistance was measured for a period of 45 minutes. The respiratory resistance is expressed as a dimensionless value calculated by using the formula for the Penh (ref. 4).

For the substance “Ac-AHWSGHCCL-NH2 (cysteine pairing not given here) [LCBP]”, the “Inhibition of Ig LC binding to mast cells” value in the assay on RBL-2H3 cells (LCBP 0.25 mg/ml, FIG. 1 curve 2) is given as “can be inhibited”; in the assay on RBL-2H3 cells (LCBP 0.50 mg/ml, FIG. 1 curve 3), “can be inhibited”. In addition, the “Penh (maximum, respiratory resistance)” value with mice (LCBP/PBS/PSA group (200 μg LCBP intranasally, saline instead of Ig LC), time 0 min, basal line reading before the challenge) is given as 0.44 ± 0.05; in the assay with mice (LCBP/PBS/PSA group (200 μg LCBP intranasally, saline instead of Ig LC), time 2.5 min), 0.60 ± 0.12; with mice (LCBP/PBS/PSA group (200 μg LCBP intranasally, saline instead of Ig LC), time 5 min), 0.65 ± 0.23; in the assay with mice (LCBP/PBS/PSA group (200 μg LCBP intranasally, saline instead of Ig LC), time 7.5 min) it was 0.74 ± 0.12; in the assay on mice (LCBP/PBS/PSA group (200 μg LCBP intranasally, saline instead of Ig LC), time 10 min) it was 0.53 ± 0.03; with mice (LCBP/PBS/PSA group (200 μg LCBP intranasally, saline instead of Ig LC), time 15 min), 0.49 ± 0.06. The “Penh (maximum, respiratory resistance)” value in the assay with mice (LCBP/PBS/PSA group (200 μg LCBP intranasally, saline instead of Ig LC), time 20 min) stood at 0.49 ± 0.03; in the assay on mice (LcBP/Ig LC/PSA group (200 μg LCBP intranasally, Ig LC-sensitized mice), time 0 min, basal line reading before the challenge), 0.43 ± 0.05; with mice (LcBP/Ig LC/PSA group (200 μg LCBP intranasally, Ig LC-sensitized mice), time 2.5 min), 0.87 ± 0.20; with mice (LcBP/Ig LC/PSA group (200 μg LCBP intranasally, Ig LC-sensitized mice), time 5 min) it was 1.12 ± 0.20; with mice (LcBP/Ig LC/PSA group (200 μg LCBP intranasally, Ig LC-sensitized mice), time 7.5 min), 0.87 ± 0.10; with mice (LcBP/Ig LC/PSA group (200 μg LCBP intranasally, Ig LC-sensitized mice), time 10 min), 0.87 ± 0.20. The “Penh (maximum, respiratory resistance)” value in the assay on mice (LcBP/Ig LC/PSA group (200 μg LCBP intranasally, Ig LC-sensitized mice), time 15 min) was 0.85 ± 0.01; in the assay with mice (LcBP/Ig LC/PSA group (200 μg LCBP intranasally, Ig LC-sensitized mice), time 20 min), 0.52 ± 0.05. Further, the “Inhibition of bronchoconstriction (elevation of Penh) induced by antigen (PSA)” value in the assay on mice (intranasal LCBP during passive sensitization (i.v.) with Ig LC) is “completely inhibit”.
